Results published in US9409905B2, “Antibacterial compounds and methods for use” (PTC THERAPEUTICS, INC., priority 2011, dated 2016).
Converted amounts (≈) assume the structure as drawn.

Key:
[1] = tested on: Escherichia coli (E. coli) BAS849; test: Antibacterial activity, microbroth dilution MIC (Table 1); format: cell-based; details: microbroth dilution, super sensitive Gram-negative E. coli BAS849, read-out: MIC, BAS849
Summary of the method: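 Each strain is exposed to test compound in a microbroth dilution series; visible growth is scored macroscopically, and the lowest growth-free concentration is recorded as MIC in μg/mL.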

[2] = tested on: Staphylococcus aureus (S. aureus) 29213; test: as above; format: cell-based; details: microbroth dilution, Gram-positive S. aureus 29213, read-out: MIC, 29213
Summary of the method: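 Values are MICs (μg/mL): the smallest drug amount at which macroscopically visible bacterial growth is absent under assay conditions, from a microdilution method in broth.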

E. coli ELZ4251 = test: Antibacterial activity, MIC, multi-drug resistant clinical isolate (Table 3); format: cell-based; details: Escherichia coli
From the text: (§1) The antibacterial activity from a microbroth dilution method may be presented as the minimum inhibitory concentration (MIC in μg/mL). The MIC value is the lowest concentration of drug which prevents macroscopically visible growth under test conditions.
(§2) Antibacterial activity of test compounds against E. coli ELZ4000 and E. coli ELZ4251 multi-drug resistant clinical isolates is shown in Table 3.

E. coli ELZ4000 = test: as above; format: cell-based; details: Escherichia coli, ELZ4000, read-out: MIC ELZ4000
From the text: as §1, §2

E. coli LZ3111 = test: Antibacterial activity, MIC, quinolone resistant strain (Table 2); format: cell-based; details: Escherichia coli, LZ3111, read-out: MIC LZ3111
Summary of the method: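 Microbroth dilution method; MIC (μg/mL) is the lowest drug concentration preventing macroscopically visible growth under test conditions.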

[3] = tested on: Pseudomonas aeruginosa (P. aeruginosa) 27853; test: Antibacterial activity, MIC (Table 5); format: cell-based; details: P. aeruginosa 27853, read-out: MIC, 27853
Summary of the method: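 Activity was measured by microbroth dilution. The MIC, in μg/mL, is the lowest drug concentration that prevents macroscopically visible growth under the test conditions.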

E. coli 25922 = test: Antibacterial activity, microbroth dilution MIC (Table 1); format: cell-based, Escherichia coli; details: Escherichia coli; microbroth dilution; control Gram-negative E. coli 25922 strain; read-out: MIC, 25922
Summary of the method: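 Broth microdilution; endpoint = no macroscopic growth; value = lowest inhibiting concn, μg/mL.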

A. baumannii MXX2240 = test: Antibacterial activity, MIC, resistant strain (Table 4); format: cell-based; details: Acinetobacter baumannii, MXX2240; resistant A. baumannii MMX2240, multi-drug resistant clinical isolate; read-out: MIC, MMX2240
Summary of the method: (§3)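 Activity was measured by microbroth dilution. The MIC, in μg/mL, is the lowest drug concentration that prevents macroscopically visible growth under the test conditions. The resistant strains are multi-drug resistant clinical isolates.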

K. pneumoniae MXX1232 = test: as above; format: cell-based; details: Klebsiella pneumoniae, MXX1232; resistant K. pneumoniae MMX1232, multi-drug resistant clinical isolate; read-out: MIC, MMX1232
Summary of the method: as §3

[4] = tested on: Klebsiella pneumoniae (K. pneumoniae) 35657; test: Antibacterial activity, MIC (Table 4); format: cell-based; details: K. pneumoniae 35657, read-out: MIC, 35657
Summary of the method: as §3

[5] = tested on: Acinetobacter baumannii (A. baumannii) BAA747; test: Antibacterial activity, MIC (Table 4); format: cell-based; details: A. baumannii BAA747, read-out: MIC, BAA747
Summary of the method: as §3

SMILES	MIC [1] [µg/mL]	MIC [2] [µg/mL]	MIC (E. coli ELZ4251) [µg/mL]	MIC (E. coli ELZ4000) [µg/mL]	MIC (E. coli LZ3111) [µg/mL]	MIC [3] [µg/mL]	MIC (E. coli 25922) [µg/mL]	MIC (A. baumannii MXX2240) [µg/mL]	MIC (K. pneumoniae MXX1232) [µg/mL]	MIC [4] [µg/mL]	MIC [5] [µg/mL]
CCc1c(-c2ccc3c(c2)cc(CN(C)C2CCNCC2)n3C)[nH]c(=O)c(C(=O)O)c1O [Cpd 261, 5-ethyl-4-hydroxy-6-(1-methyl-2-((methyl(piperidin-4-yl)amino)methyl)-1H-indol-5-yl)-2-oxo-1,2-dihydropyridine-3-carboxylic acid]	1 to 3.5 (≈ 2.28 to 7.98 µM)	12.5 to 150 (≈ 28.5 to 342 µM)	12.5 to 150 (≈ 28.5 to 342 µM)	12.5 to 150 (≈ 28.5 to 342 µM)	3.5 to 12.5 (≈ 7.98 to 28.5 µM)	12.5 to 150 (≈ 28.5 to 342 µM)	3.5 to 12.5 (≈ 7.98 to 28.5 µM)	–	–	–	–
CCc1c(-c2ccc3c(c2)cc(CN(C)C2CCCNC2)n3C)[nH]c(=O)c(C(=O)O)c1O (stereo not drawn) [Cpd 262, 5-ethyl-4-hydroxy-6-(1-methyl-2-((methyl(piperidin-3-yl)amino)methyl)-1H-indol-5-yl)-2-oxo-1,2-dihydropyridine-3-carboxylic acid]	1 to 3.5 (≈ 2.28 to 7.98 µM)	12.5 to 150 (≈ 28.5 to 342 µM)	12.5 to 150 (≈ 28.5 to 342 µM)	12.5 to 150 (≈ 28.5 to 342 µM)	3.5 to 12.5 (≈ 7.98 to 28.5 µM)	12.5 to 150 (≈ 28.5 to 342 µM)	3.5 to 12.5 (≈ 7.98 to 28.5 µM)	–	–	–	–
CCc1c(-c2ccc3c(c2)cc(CN(CC2CC2)C2CCNCC2)n3C)[nH]c(=O)c(C(=O)O)c1O [Cpd 264, 6-(2-(((cyclopropylmethyl)(piperidin-4-yl)amino)methyl)-1-methyl-1H-indol-5-yl)-5-ethyl-4-hydroxy-2-oxo-1,2-dihydropyridine-3-carboxylic acid]	1 to 3.5 (≈ 2.09 to 7.31 µM)	3.5 to 12.5 (≈ 7.31 to 26.1 µM)	3.5 to 12.5 (≈ 7.31 to 26.1 µM)	12.5 to 150 (≈ 26.1 to 313 µM)	1 to 3.5 (≈ 2.09 to 7.31 µM)	12.5 to 150 (≈ 26.1 to 313 µM)	3.5 to 12.5 (≈ 7.31 to 26.1 µM)	–	–	–	–
CCc1c(-c2ccc3c(c2)cc(CN2C[C@H]4CC[C@@H](N(C)C)[C@H]4C2)n3C)[nH]c(=O)c(C(=O)O)c1O [Cpd 278, 6-(2-(((3aR,4R,6aS)-4-(dimethylamino)hexahydrocyclopenta[c]pyrrol-2(1H)-yl)methyl)-1-methyl-1H-indol-5-yl)-5-ethyl-4-hydroxy-2-oxo-1,2-dihydropyridine-3-carboxylic acid]	< 1	3.5 to 12.5 (≈ 7.31 to 26.1 µM)	12.5 to 150 (≈ 26.1 to 313 µM)	12.5 to 150 (≈ 26.1 to 313 µM)	3.5 to 12.5 (≈ 7.31 to 26.1 µM)	12.5 to 150 (≈ 26.1 to 313 µM)	1 to 3.5 (≈ 2.09 to 7.31 µM)	–	–	–	–
CCc1c(-c2ccc3c(c2)cc(CN2C[C@H]4CCC[C@@H](N)[C@H]4C2)n3C)[nH]c(=O)c(C(=O)O)c1O [Cpd 284, 6-(2-(((3aR,4R,7aS)-4-amino-1H-isoindol-2(3H,3aH,4H,5H,6H,7H,7aH)-yl)methyl)-1-methyl-1H-indol-5-yl)-5-ethyl-4-hydroxy-2-oxo-1,2-dihydropyridine-3-carboxylic acid]	< 1	12.5 to 150 (≈ 26.9 to 323 µM)	12.5 to 150 (≈ 26.9 to 323 µM)	12.5 to 150 (≈ 26.9 to 323 µM)	3.5 to 12.5 (≈ 7.53 to 26.9 µM)	3.5 to 12.5 (≈ 7.53 to 26.9 µM)	1 to 3.5 (≈ 2.15 to 7.53 µM)	–	–	–	–
CCc1c(-c2ccc3c(c2)cc(CN2C[C@H]4C[C@@H](N)C[C@H]4C2)n3C)[nH]c(=O)c(C(=O)O)c1O [Cpd 287, 6-(2-(((3aR,5r,6aS)-5-aminohexahydrocyclopenta[c]pyrrol-2(1H)-yl)methyl)-1-methyl-1H-indol-5-yl)-5-ethyl-4-hydroxy-2-oxo-1,2-dihydropyridine-3-carboxylic acid]	< 1	3.5 to 12.5 (≈ 7.77 to 27.7 µM)	12.5 to 150 (≈ 27.7 to 333 µM)	12.5 to 150 (≈ 27.7 to 333 µM)	3.5 to 12.5 (≈ 7.77 to 27.7 µM)	12.5 to 150 (≈ 27.7 to 333 µM)	3.5 to 12.5 (≈ 7.77 to 27.7 µM)	–	–	–	–
CCc1c(-c2ccc3c(c2)cc(CN2C[C@H]4C[C@@H](N(C)Cc5ccccc5)C[C@H]4C2)n3C)[nH]c(=O)c(C(=O)O)c1O [Cpd 288, 6-(2-(((3aR,5r,6aS)-5-(benzyl(methyl)amino)hexahydrocyclopenta[c]pyrrol-2(1H)-yl)methyl)-1-methyl-1H-indol-5-yl)-5-ethyl-4-hydroxy-2-oxo-1,2-dihydropyridine-3-carboxylic acid]	< 1	3.5 to 12.5 (≈ 6.31 to 22.5 µM)	12.5 to 150 (≈ 22.5 to 270 µM)	12.5 to 150 (≈ 22.5 to 270 µM)	12.5 to 150 (≈ 22.5 to 270 µM)	12.5 to 150 (≈ 22.5 to 270 µM)	1 to 3.5 (≈ 1.8 to 6.31 µM)	–	–	–	–
CCc1c(-c2ccc3c(c2)cc(CN2CCCCC2)n3C)[nH]c(=O)c(C(=O)O)c1N [Cpd 331, 4-amino-5-ethyl-6-(1-methyl-2-(piperidin-1-ylmethyl)-1H-indol-5-yl)-2-oxo-1,2-dihydropyridine-3-carboxylic acid]	< 1	12.5 to 150 (≈ 30.6 to 367 µM)	12.5 to 150 (≈ 30.6 to 367 µM)	12.5 to 150 (≈ 30.6 to 367 µM)	12.5 to 150 (≈ 30.6 to 367 µM)	12.5 to 150 (≈ 30.6 to 367 µM)	3.5 to 12.5 (≈ 8.57 to 30.6 µM)	–	–	–	–
CCc1c(-c2ccc3sccc3c2)[nH]c(=O)c(C(=O)O)c1O [Cpd 367, 6-(benzo[b]thiophen-5-yl)-5-ethyl-4-hydroxy-2-oxo-1,2-dihydropyridine-3-carboxylic acid]	< 1	1 to 3.5 (≈ 3.17 to 11.1 µM)	12.5 to 150 (≈ 39.6 to 476 µM)	–	3.5 to 12.5 (≈ 11.1 to 39.6 µM)	12.5 to 150 (≈ 39.6 to 476 µM)	12.5 to 150 (≈ 39.6 to 476 µM)	3.5 to 12.5 (≈ 11.1 to 39.6 µM)	12.5 to 150 (≈ 39.6 to 476 µM)	12.5 to 150 (≈ 39.6 to 476 µM)	12.5 to 150 (≈ 39.6 to 476 µM)
